Consider 13 compounds from US10752624B2, “Kinase inhibitors” (Origenis GmbH, priority 2012, dated 2020).

In one assay the target is T1, SYK kinase (Homo sapiens, UniProt P43405).
T1 construct: purchased Invitrogen, Carlsbad
Nature of the assay: SYK Assay (OMNIA Kinase Assay, SOX peptide fluorescence). The format is biochemical. The settings on record: 1 mM ATP, 10 μM Omnia Peptide Substrate Tyr 7, 30° C., readings for 30 minutes; read-out: SYK Activities: IC50. In short, it runs like this: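 The reaction was run at 30 °C with 1 mM ATP, 0.2 mM DTT and 10 μM Omnia Tyr 7 peptide (final) and started by adding SYK. Chelation-enhanced SOX fluorescence (ex 360/em 485 nm) was read every 30 s for 30 min. Reaction velocity versus inhibitor concentration was fitted sigmoidally for IC50.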

A further assay has as its target LRRK2 (Homo sapiens, UniProt Q5S007). Nature of the assay: LRRK2-LRRK2 G2019S-Assay (LanthaScreen Eu Kinase Binding Assay). The settings on record: 5 nM LRRK2, 10 nM tracer 236, 2 nM EU-Anti-GST antibody, 1 h at RT; read-out: LRRK2 Activities: IC50. In short, it runs like this: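 In a TR-FRET tracer displacement assay, LRRK2 or its mutants at 5 nM were mixed with 2 nM Eu-anti-GST antibody and 10 nM tracer 236 in kinase buffer A for 1 h at RT. The 665/615 nm emission ratio was plotted against inhibitor concentration, and IC50 came from a variable-slope sigmoidal fit.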

By IC50 is commonly meant the concentration that inhibits the measured activity by half.

Sequence of LRRK2 (Q5S007 970-2527 limits assumed): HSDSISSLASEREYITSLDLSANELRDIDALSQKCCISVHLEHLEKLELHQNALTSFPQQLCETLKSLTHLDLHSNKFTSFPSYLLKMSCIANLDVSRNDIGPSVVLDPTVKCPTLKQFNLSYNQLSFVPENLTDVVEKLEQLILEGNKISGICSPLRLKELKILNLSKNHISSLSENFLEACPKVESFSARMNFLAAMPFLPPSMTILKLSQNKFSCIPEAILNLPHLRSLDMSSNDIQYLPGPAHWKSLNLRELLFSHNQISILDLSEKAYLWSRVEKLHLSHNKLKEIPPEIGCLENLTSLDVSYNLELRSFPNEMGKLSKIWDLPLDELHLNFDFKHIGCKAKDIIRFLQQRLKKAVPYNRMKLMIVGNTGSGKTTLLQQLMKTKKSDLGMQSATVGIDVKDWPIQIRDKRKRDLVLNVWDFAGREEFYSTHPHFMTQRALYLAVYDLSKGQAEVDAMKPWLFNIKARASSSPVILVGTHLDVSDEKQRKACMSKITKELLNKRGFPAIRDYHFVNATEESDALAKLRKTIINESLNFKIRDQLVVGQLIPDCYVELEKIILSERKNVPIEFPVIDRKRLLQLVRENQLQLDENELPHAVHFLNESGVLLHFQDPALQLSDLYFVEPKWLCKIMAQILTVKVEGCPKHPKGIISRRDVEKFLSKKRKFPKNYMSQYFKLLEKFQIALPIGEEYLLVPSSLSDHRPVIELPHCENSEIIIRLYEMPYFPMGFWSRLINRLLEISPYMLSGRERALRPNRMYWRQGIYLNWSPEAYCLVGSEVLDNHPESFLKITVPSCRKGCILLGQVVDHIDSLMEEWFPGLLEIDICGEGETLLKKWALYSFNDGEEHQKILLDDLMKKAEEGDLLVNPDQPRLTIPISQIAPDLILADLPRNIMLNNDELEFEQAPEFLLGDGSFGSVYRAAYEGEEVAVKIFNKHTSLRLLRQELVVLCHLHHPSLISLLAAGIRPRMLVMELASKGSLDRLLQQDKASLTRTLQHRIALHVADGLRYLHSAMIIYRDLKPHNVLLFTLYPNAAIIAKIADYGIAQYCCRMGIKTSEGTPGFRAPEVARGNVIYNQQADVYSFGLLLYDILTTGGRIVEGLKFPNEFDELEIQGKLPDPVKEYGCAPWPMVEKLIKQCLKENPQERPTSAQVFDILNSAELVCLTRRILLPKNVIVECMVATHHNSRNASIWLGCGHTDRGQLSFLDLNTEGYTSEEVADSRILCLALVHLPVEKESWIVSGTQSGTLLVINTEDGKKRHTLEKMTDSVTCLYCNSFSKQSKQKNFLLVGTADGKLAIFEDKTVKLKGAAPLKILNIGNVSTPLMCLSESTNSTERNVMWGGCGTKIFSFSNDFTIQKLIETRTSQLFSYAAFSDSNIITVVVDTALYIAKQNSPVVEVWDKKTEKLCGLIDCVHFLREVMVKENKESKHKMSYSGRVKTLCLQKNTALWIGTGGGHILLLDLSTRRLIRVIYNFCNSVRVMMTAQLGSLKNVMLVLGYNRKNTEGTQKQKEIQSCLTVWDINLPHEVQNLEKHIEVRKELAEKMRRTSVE

For `CS(=O)(=O)c1ccc2nc(Nc3cnn(CC(F)(F)F)c3)c3[nH]ncc3c2c1` [Example 261, 8-(methylsulfonyl)-N-(1-(2,2,2-trifluoroethyl)-1H-pyrazol-4-yl)-3H-pyrazolo[3,4-c]quinolin-4-amine], the IC50 at SYK kinase is 10 to 100 nM; on LRRK2 it was < 10 nM.
On the same counts, the results for `CS(=O)(=O)c1ccc2nc(Nc3cnn(C4CC4)c3)c3[nH]ncc3c2c1` [Example 203, N-(1-cyclopropyl-1H-pyrazol-4-yl)-8-(methylsulfonyl)-3H-pyrazolo[3,4-c]quinolin-4-amine] are < 10 nM and < 10 nM.
Take `CC(=O)N1CCN(c2ccc(Nc3nc4ccc(C)cc4c4cn[nH]c34)cc2)CC1` [Example 73, 1-(4-(4-((8-methyl-3H-pyrazolo[3,4-c]quinolin-4-yl)amino)phenyl)piperazin-1-yl)ethan-1-one]: the IC50 at SYK kinase was 100 to 1000 nM; at LRRK2, 10 to 100 nM.
On the same counts, the results for `COc1cccc2nc(Nc3cnn(CC(C)C)c3)c3[nH]ncc3c12` [Example 198, N-(1-isobutyl-1H-pyrazol-4-yl)-9-methoxy-3H-pyrazolo[3,4-c]quinolin-4-amine] are 100 to 1000 nM and < 10 nM.
With `C=C(C)Cn1cc(Nc2nc3cccc(OC)c3c3cn[nH]c23)cn1` [Example 258, 9-methoxy-N-(1-(2-methylallyl)-1H-pyrazol-4-yl)-3H-pyrazolo[3,4-c]quinolin-4-amine], the IC50 at SYK kinase was 100 to 1000 nM; on LRRK2, < 10 nM.
On the same counts, the results for `COc1cc(OC)c2nc(Nc3cnn(C4CCOCC4)c3)c3[nH]ncc3c2c1` [Example 289, 6,8-dimethoxy-N-(1-(tetrahydro-2H-pyran-4-yl)-1H-pyrazol-4-yl)-3H-pyrazolo[3,4-c]quinolin-4-amine] are 100 to 1000 nM and 10 to 100 nM.
For `COCCCn1cc(Nc2nc3ccc(S(C)(=O)=O)cc3c3cn[nH]c23)cn1` [Example 178, N-(1-(3-methoxypropyl)-1H-pyrazol-4-yl)-8-(methylsulfonyl)-3H-pyrazolo[3,4-c]quinolin-4-amine], the IC50 at SYK kinase was 10 to 100 nM; at LRRK2 it was < 10 nM.
On the same counts, the results for `CS(=O)(=O)c1ccc2nc(Nc3ccc4c(c3)NC(=O)CCC4)c3[nH]ncc3c2c1` [Example 77, 8-((8-(methylsulfonyl)-3H-pyrazolo[3,4-c]quinolin-4-yl)amino)-4,5-dihydro-1H-benzo[b]azepin-2(3H)-one] are < 10 nM and < 10 nM.
On the same counts, the results for `COc1ccc(Nc2nc3cc(S(C)(=O)=O)ccc3c3cn[nH]c23)cc1OC` [Example 302, N-(3,4-dimethoxyphenyl)-7-(methylsulfonyl)-3H-pyrazolo[3,4-c]quinolin-4-amine] are 100 to 1000 nM and 100 to 1000 nM.
On the same counts, the results for `COc1cccc2c1nc(Nc1cnn(C3CCOCC3)c1)c1[nH]ncc12` [Example 307, 6-methoxy-N-(1-(tetrahydro-2H-pyran-4-yl)-1H-pyrazol-4-yl)-3H-pyrazolo[3,4-c]quinolin-4-amine] are 100 to 1000 nM and 100 to 1000 nM.
For the compound `CC(C)n1cc(Nc2nc3ccc(S(C)(=O)=O)cc3c3cn[nH]c23)cn1` [Example 180, N-(1-isopropyl-1H-pyrazol-4-yl)-8-(methylsulfonyl)-3H-pyrazolo[3,4-c]quinolin-4-amine], the IC50 on SYK kinase and at LRRK2 was < 10 nM throughout.
As for `CC(C)(C#N)n1cc(Nc2nc3cc(S(C)(=O)=O)ccc3c3cn[nH]c23)cn1` [Example 191, 2-methyl-2-(4-((7-(methylsulfonyl)-3H-pyrazolo[3,4-c]quinolin-4-yl)amino)-1H-pyrazol-1-yl)propanenitrile], the figures for the IC50 at SYK kinase and on LRRK2 were 100 to 1000 nM and 10 to 100 nM, respectively.
Take `CS(=O)(=O)c1ccc2c(c1)nc(Nc1cnn(C3CC3)c1)c1[nH]ncc12` [Example 197, N-(1-cyclopropyl-1H-pyrazol-4-yl)-7-(methylsulfonyl)-3H-pyrazolo[3,4-c]quinolin-4-amine]: the IC50 on SYK kinase and on LRRK2 was 10 to 100 nM throughout.
